Assay results reported in patent US20260091050A1, “ADVANTAGEOUS ANTI-HCV COMBINATION THERAPY” (Atea Pharmaceuticals, Inc., priority 2021, published 2026).
Where “and” joins values, the source holds several entries; their conditions need not be identical. Equal values may be shown once. Read-outs that look alike come from different tables or passages of the source.

Legend:
[1] = Chemical stability of Compound 1-A at 25° C./60% RH and 40° C./75% RH over 6 months; type: physicochemical; details: for Increase of percent of water: over 6 months
Procedure: The container closure system for the study was a combination medicinal valve bag with a pharmaceutical laminated film over the pouch and desiccant silica gel between the two layers. […] Bags were then stored at 25° C./60% RH (relative humidity) and 40° C./75% RH (relative humidity). Organic purity, water content, ^1HNMR, DSC and Raman were measured at Time 0, Month 1, Month 2, Month 3 and Month 6.
The sample was dissolved in acetonitrile—water (90:10) (v/v). The gradient method is shown below.

[2] = test system: GT1 HCV; test: Single ascending dose study of Compound 1-A in GT1-HCV infected patients (Part B); type: in vivo, human; details: for Mean Max Reduction of HCV RNA from baseline: GT1b HCV patients
Procedure: Subjects in Part B received a single dose of Compound 1-A in the fasting state. Patients were confined to the clinic from Day −1 to Day 6.
Part B was initiated after the safety (through Day 5) and plasma pharmacokinetic (through 24 h) data review from Cohort 3a in Part A. Available safety data (through Day 5) and pharmacokinetic data (through 24 h) was reviewed for the first cohort in Part B (Cohort 1b) before enrolling subsequent Part B cohorts. Subsequent Part B cohorts were only dosed following review of available safety and pharmacokinetic data from the respective doses in Part A as well as available safety (through Day 5) from the prior Part B cohorts.
Patients infected with HCV were treatment-naïve, non-cirrhotic GT1-infected subjects with a viral load of ≥5 log10 IU/mL.
Baseline was defined as the mean of Day −1 and Day 1 (pre-dose). […] The mean maximum HCV RNA reduction 24 hours post-dose following a single 300 mg dose was 1.7 log10 IU/mL and this compares to a −2 log 10 IU/mL reduction after 1 day of 400 mg of sofosbuvir monotherapy in GT1a HCV-infected subjects. The mean maximum HCV RNA reduction 24 hours post-dose following a single 100 mg dose was 0.8 log10 IU/mL. The mean 10 maximum HCV RNA reduction was 2.2 log10 IU/mL following a single 400 mg dose.

[3] = test system: HCV; details: cited from earlier work; for viral load reduction, individual: cirrhotic
[4] = Plasma levels of Compound 1 and metabolites after single oral dose of Compound 1-A, rat; type: in vivo; details: 500 mg/kg single oral dose
[5] = Accelerated stability (40 ± 2° C./75 ± 5% RH) of Compound 1-A over 6 months; type: physicochemical
Procedure: Three conditions were tested: accelerated stability (40±2° C./[…]) over a 6-month time period, ambient stability (25±2° C./[…]) over a 9-month period, and stability under refrigerator conditions (5±3° C.) over a 9-month time period. The results for accelerated stability, ambient stability, and refrigerator conditions are shown in Table 23, Table 24, and Table 25, respectively.

[6] = test system: HCV; test: Emax model: HCV RNA reduction on day 7 against AUC of metabolite 1-7; type: in vivo, human; details: after 7 days QD dosing, metabolite 1-7 exposures ≥2000 ng/mL×h
[7] = Head-to-head comparison of Compound 1 and Compound 1-A in dogs: plasma levels; type: in vivo; details: dog plasma
Procedure: A head-to-head comparison of dogs dosed with Compound 1 and Compound 1-A was conducted.

[8] = 25° C., Month 1, compared with Day 0
[9] = 25° C., Month 2, compared with Day 0
[10] = 25° C., Month 3, compared with Day 0
[11] = 25° C., Month 6, compared with Day 0
[12] = 40° C., Month 1, compared with Day 0
[13] = 40° C., Month 2, compared with Day 0
[14] = 40° C., Month 3, compared with Day 0
[15] = 40° C., Month 6, compared with Day 0

CNc1nc(N)nc2c1ncn2[C@@H]1O[C@H](CO[P@@](=O)(N[C@@H](C)C(=O)OC(C)C)Oc2ccccc2)[C@@H](O)[C@@]1(C)F [Compound 1-A, isopropyl ((S)-(((2R,3R,4R,5R)-5-(2-amino-6-(methylamino)-9H-purin-9-yl)-4-fluoro-3-hydroxy-4-methyltetrahydrofuran-2-yl)methoxy) (phenoxy)phosphoryl)-L-alaninate hemisulfate]
Maximum Impurity Percent ([1]; 25° C., Day 0): 0.12% | Percent Purity ([1]; 25° C., Day 0): 99.82% | Percent Water ([1]; 25° C., Day 0): 1.2% | Maximum Impurity Percent ([1]; 25° C., Month 1): 0.12% | Percent Purity ([1]; 25° C., Month 1): 99.77% | Percent Water ([1]; 25° C., Month 1): 1.9% | DSC [1, 8]: The same | Raman [1, 8]: The same | ^1HNMR [1, 8]: The same | Maximum Impurity Percent ([1]; 25° C., Month 2): 0.12% | Percent Purity ([1]; 25° C., Month 2): 99.75% | Percent Water ([1]; 25° C., Month 2): 1.8% | DSC [1, 9]: The same | Raman [1, 9]: The same | ^1HNMR [1, 9]: The same | Maximum Impurity Percent ([1]; 25° C., Month 3): 0.12% | Percent Purity ([1]; 25° C., Month 3): 99.75% | Percent Water ([1]; 25° C., Month 3): 1.8% | DSC [1, 10]: The same | Raman [1, 10]: The same | ^1HNMR [1, 10]: The same | Maximum Impurity Percent ([1]; 25° C., Month 6): 0.13% | Percent Purity ([1]; 25° C., Month 6): 99.74% | Percent Water ([1]; 25° C., Month 6): 1.8% | DSC [1, 11]: The same | Raman [1, 11]: The same | ^1HNMR [1, 11]: The same | Increase of percent of water ([1]; 25° C.): approximately 0.6% | Maximum Impurity Percent ([1]; 40° C., Day 0): 0.12% | Percent Purity ([1]; 40° C., Day 0): 99.82% | Percent Water ([1]; 40° C., Day 0): 1.2% | Maximum Impurity Percent ([1]; 40° C., Month 1): 0.12% | Percent Purity ([1]; 40° C., Month 1): 99.71% | Percent Water ([1]; 40° C., Month 1): 2.0% | DSC [1, 12]: The same | Raman [1, 12]: The same | ^1HNMR [1, 12]: The same | Maximum Impurity Percent ([1]; 40° C., Month 2): 0.12% | Percent Purity ([1]; 40° C., Month 2): 99.63% | Percent Water ([1]; 40° C., Month 2): 1.9% | DSC [1, 13]: The same | Raman [1, 13]: The same | ^1HNMR [1, 13]: The same | Maximum Impurity Percent ([1]; 40° C., Month 3): 0.12% | Percent Purity ([1]; 40° C., Month 3): 99.58% | Percent Water ([1]; 40° C., Month 3): 1.9% | DSC [1, 14]: The same | Raman [1, 14]: The same | ^1HNMR [1, 14]: The same | Maximum Impurity Percent ([1]; 40° C., Month 6): 0.14% | Percent Purity ([1]; 40° C., Month 6): 99.30% | Percent Water ([1]; 40° C., Month 6): 1.9% | DSC [1, 15]: The same | Raman [1, 15]: The same | ^1HNMR [1, 15]: The same | Increase of percent of water ([1]; 40° C.): approximately 0.7% | mean maximum HCV RNA reduction ([2]; 24 hours post-dose, single 100 mg dose): 0.8 log10 IU/mL | mean maximum HCV RNA reduction ([2]; 24 hours post-dose, single 300 mg dose, GT1b): 1.7 log10 IU/mL | Mean Max Reduction of HCV RNA from baseline ([2]; single dose, Compound 1-A equivalent of 92 mg Compound 1): 0.8 log10 IU/ml | Mean Max Reduction of HCV RNA from baseline ([2]; single dose, Compound 1-A equivalent of 275 mg Compound 1): 1.7 log10 IU/ml | Mean Max Reduction of HCV RNA from baseline ([2]; single dose, Compound 1-A equivalent of 368 mg Compound 1): 2.2 log10 IU/ml | Mean Max Reduction of HCV RNA from baseline ([2]; single dose, Compound 1-A equivalent of 550 mg Compound 1): 2.3 log10 IU/ml | intensity of adverse effects ([2]; Part B): mild to moderate | serious adverse events ([2]; Part B, GT1-HCV infected patients, single dose): No serious adverse events | mean maximum HCV RNA reduction ([2]; single 400 mg dose): 2.2 log10 IU/mL | individual maximum HCV RNA reductions ([2]; single 600 mg dose, non-cirrhotic GT1b): 2.1 log10 IU/mL and 2.3 log10 IU/mL and 2.6 log10 IU/mL | mean maximum HCV RNA reduction ([2]; single 600 mg dose, non-cirrhotic GT1b (n=3)): 2.3 log10 IU/mL | time within which the parent is metabolized ([2]; single oral dose of Compound 1-A, plasma): ≤ 8 h | viral load reduction ([3]; cirrhotic participants): 4.6 log 10 IU/mL | viral load reduction, individual ([3]; GT1b, listed as bemnifosbuvir): 4.0 log 10 IU/mL (2×) and 4.5 log 10 IU/mL | viral load reduction, individual ([3]; GT2): 5.0 log 10 IU/mL | viral load reduction, individual ([3]; GT3, listed as bemnifosbuvir): 4.8 log 10 IU/mL and 5.2 log 10 IU/mL | viral load reduction ([3]; non-cirrhotic participants): 4.5 log 10 IU/mL | Compound 1 AUC0-last [4]: 60.9 ng·h/mL | Compound 1 Cmax [4]: 70.5 ng/mL | Compound 1 Tmax [4]: 15 min | Appearance ([5]; 0 month): White | Assay ([5]; 0 month): 98.8% | IR ([5]; 0 month): correspond | Related Substance 1 Any other single impurity ([5]; 0 month): 0.01% | Related Substance 1 Total Impurities ([5]; 0 month): 0.01% | Water ([5]; 0 month): 0.45% | Appearance ([5]; 1st month): White | Assay ([5]; 1st month): 101.5% | Related Substance 1 Any other single impurity ([5]; 1st month): 0.02% | Related Substance 1 Total Impurities ([5]; 1st month): 0.02% | Water ([5]; 1st month): 0.21% | Appearance ([5]; 3rd month): White | Assay ([5]; 3rd month): 99.6% | IR ([5]; 3rd month): correspond | Related Substance 1 Any other single impurity ([5]; 3rd month): 0.01% | Related Substance 1 Total Impurities ([5]; 3rd month): 0.02% | Water ([5]; 3rd month): 0.36% | Appearance ([5]; 6th month): White | Assay ([5]; 6th month): 99.5% | IR ([5]; 6th month): correspond | Related Substance 1 Any other single impurity ([5]; 6th month): 0.05% | Related Substance 1 Impurity F ([5]; 6th month): 0.01% | Related Substance 1 Total Impurities ([5]; 6th month): 0.08% | Related Substance 2 Impurity G ([5]; 6th month): no detection | Water ([5]; 6th month): 0.41% | Chemical stability (overall conclusion) ([5]; accelerated, ambient and refrigerator studies): very chemically stable | predicted maximal viral load reduction [6]: at least 4 log units | AUC(0-4 hr) of metabolite 1-7 compared to dosing with Compound 1 [7]: twice as great | Mean Dose-normalized AUC(0-4 hr) for Compound 1 ([7]; normalized to a dose of 25 mg/kg, 25 mg/kg): 1.0 µM·h
